# Results as given in patent publication US9944646B2, “Bicyclic azaheterocyclobenzylamines as PI3K inhibitors” (Incyte Corporation, priority 2012, dated 2018).
# Molecular target: PI3Kδ (Homo sapiens (Human), UniProt O00329)
# Assay: PI3K Enzyme Assay (Example A2), [γ-33P]ATP filter plate
# Format: biochemical
# Method: Example A2: PI3K Enzyme Assay
# Lipid kinase substrate, phosphoinositol-4,5-bisphosphate (PIP2), are purchased from Echelon Biosciences (Salt Lake City, Utah). PI3K isoforms α, β, δ and γ are purchased from Millipore (Bedford, Mass.). ATP, MgCl2, DTT, EDTA, MOPS and CHAPS are purchased from Sigma-Aldrich (St. Louis, Mo.).
# The kinase reaction are conducted in clear-bottom 96-well plate from Thermo Fisher Scientific in a final volume of 24 μL. Inhibitors are first diluted serially in DMSO and added to the plate wells before the addition of other reaction components. The final concentration of DMSO in the assay is 0.5%. The PI3K assays are carried out at room temperature in 20 mM MOPS, pH 6.7, 10 mM MgCl2, 5 mM DTT and CHAPS 0.03%. The reaction mixture is prepared containing 50 µM PIP2, kinase and varying concentration of inhibitors. Reactions are initiated by the addition of ATP containing 2.2 μCi [γ-^33P]ATP to a final concentration of 1000 μM. The final concentration of PI3K isoforms α, β, δ and γ in the assay were 1.3, 9.4, 2.9 and 10.8 nM, respectively. Reactions are incubated for 180 minutes and terminated by the addition of 100 μL of 1 M potassium phosphate pH 8.0, 30 mM EDTA quench buffer. A 100 μL aliquot of the reaction solution are then transferred to 96-well Millipore MultiScreen IP […] PVDF filter plate (The filter plate is prewetted with 200 μL 100% ethanol, distilled water, and 1 M potassium phosphate pH 8.0, respectively). The filter plate is aspirated on a Millipore Manifold under vacuum and washed with 18×200 μL wash buffer containing 1 M potassium phosphate pH 8.0 and 1 mM ATP. After drying by aspiration and blotting, the plate is air dried in an incubator at 37° C. overnight. Packard TopCount adapter (Millipore) is then attached to the plate followed with addition of 120 μL Microscint 20 scintillation cocktail (Perkin Elmer) in each well. After the plate sealing, the radioactivity of the product is determined by scintillation counting on Topcount (Perkin-Elmer). IC50 determination is performed by fitting the curve of percent control activity versus the log of the inhibitor concentration using the GraphPad Prism 3.0 software.
# Chain of PI3Kδ (O00329 whole entry): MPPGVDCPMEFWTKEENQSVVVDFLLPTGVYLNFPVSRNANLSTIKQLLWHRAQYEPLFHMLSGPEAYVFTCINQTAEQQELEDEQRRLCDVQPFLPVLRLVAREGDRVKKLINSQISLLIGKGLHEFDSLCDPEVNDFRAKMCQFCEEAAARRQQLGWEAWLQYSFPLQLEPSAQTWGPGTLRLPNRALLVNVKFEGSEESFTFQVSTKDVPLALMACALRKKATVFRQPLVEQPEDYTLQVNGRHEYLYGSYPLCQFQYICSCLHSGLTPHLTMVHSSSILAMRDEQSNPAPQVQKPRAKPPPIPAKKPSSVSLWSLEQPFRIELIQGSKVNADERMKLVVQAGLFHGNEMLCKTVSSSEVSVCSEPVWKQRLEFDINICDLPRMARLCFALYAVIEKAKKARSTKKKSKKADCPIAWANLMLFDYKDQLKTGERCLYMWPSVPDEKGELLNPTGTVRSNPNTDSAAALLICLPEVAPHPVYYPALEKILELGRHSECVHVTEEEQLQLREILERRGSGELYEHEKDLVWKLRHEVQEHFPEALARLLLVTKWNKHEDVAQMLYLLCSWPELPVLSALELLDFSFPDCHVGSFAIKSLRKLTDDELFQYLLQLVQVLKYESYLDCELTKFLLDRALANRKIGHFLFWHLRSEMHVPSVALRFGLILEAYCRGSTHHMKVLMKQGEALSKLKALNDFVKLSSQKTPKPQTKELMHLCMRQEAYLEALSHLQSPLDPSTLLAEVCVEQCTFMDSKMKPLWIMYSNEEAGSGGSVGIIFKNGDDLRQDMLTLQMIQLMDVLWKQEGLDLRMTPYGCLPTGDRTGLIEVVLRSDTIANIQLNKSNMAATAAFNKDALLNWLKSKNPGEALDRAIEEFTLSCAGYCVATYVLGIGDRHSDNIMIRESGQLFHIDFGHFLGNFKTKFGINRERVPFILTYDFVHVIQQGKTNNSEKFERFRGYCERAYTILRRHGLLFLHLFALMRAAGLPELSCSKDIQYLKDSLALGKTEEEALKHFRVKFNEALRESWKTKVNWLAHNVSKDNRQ
# Chain of PI3Kδ (P27986 whole entry partner): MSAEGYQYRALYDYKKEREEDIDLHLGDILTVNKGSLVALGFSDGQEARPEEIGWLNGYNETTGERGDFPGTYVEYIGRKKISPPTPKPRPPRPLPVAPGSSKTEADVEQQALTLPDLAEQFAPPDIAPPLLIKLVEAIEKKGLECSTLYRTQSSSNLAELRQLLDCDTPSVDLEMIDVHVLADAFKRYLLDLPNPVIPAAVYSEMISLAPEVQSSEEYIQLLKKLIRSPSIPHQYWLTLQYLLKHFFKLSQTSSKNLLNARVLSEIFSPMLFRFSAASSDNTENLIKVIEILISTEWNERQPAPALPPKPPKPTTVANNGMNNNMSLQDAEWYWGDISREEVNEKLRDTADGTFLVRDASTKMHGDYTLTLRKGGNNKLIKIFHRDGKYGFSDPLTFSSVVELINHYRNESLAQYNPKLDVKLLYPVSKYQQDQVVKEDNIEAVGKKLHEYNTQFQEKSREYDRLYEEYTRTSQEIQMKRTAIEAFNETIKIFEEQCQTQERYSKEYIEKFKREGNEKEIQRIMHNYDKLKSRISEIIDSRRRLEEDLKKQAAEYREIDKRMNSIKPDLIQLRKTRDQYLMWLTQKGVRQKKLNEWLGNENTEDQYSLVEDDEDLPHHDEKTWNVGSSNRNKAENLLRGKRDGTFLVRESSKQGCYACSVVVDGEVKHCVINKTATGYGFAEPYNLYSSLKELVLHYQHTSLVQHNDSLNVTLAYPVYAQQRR
row,IC50 [µM],SMILES
1,≤ 0.1,"Cc1nn(C(C)c2cc(Cl)c(C#N)c3c2OC(C)CN(C2CN(S(=O)(=O)N(C)C)C2)C3)c2ncnc(N)c12 (single isomer, unassigned) [Example 105, 3-[9-[1-(4-amino-3-methyl-1H-pyrazolo[3,4-d]pyrimidin-1-yl)ethyl]-7-chloro-6-cyano-2-methyl-2,3-dihydro-1,4-benzoxazepin-4(5H)-yl]-N,N-dimethylazetidine-1-sulfonamide]"
2,≤ 0.1,"Cc1nn(C(C)c2cc(Cl)c(C#N)c3c2OC(C)CN(C2CN(S(=O)(=O)N(C)C)C2)C3)c2ncnc(N)c12 (single isomer, unassigned) [Example 106, 3-[9-[1-(4-amino-3-methyl-1H-pyrazolo[3,4-d]pyrimidin-1-yl)ethyl]-7-chloro-6-cyano-2-methyl-2,3-dihydro-1,4-benzoxazepin-4(5H)-yl]-N,N-dimethylazetidine-1-sulfonamide]"
3,≤ 0.1,"Cc1nn(C(C)c2cc(Cl)c(C#N)c3c2OC(C)CN(CC#N)C3)c2ncnc(N)c12 (single isomer, unassigned) [Example 107, 9-[1-(4-amino-3-methyl-1H-pyrazolo[3,4-d]pyrimidin-1-yl)ethyl]-7-chloro-4-(cyanomethyl)-2-methyl-2,3,4,5-tetrahydro-1,4-benzoxazepine-6-carbonitrile]"
4,≤ 0.1,"Cc1nn(C(C)c2cc(Cl)c(C#N)c3c2OC(C)CN(CC#N)C3)c2ncnc(N)c12 (single isomer, unassigned) [Example 108, 9-[1-(4-amino-3-methyl-1H-pyrazolo[3,4-d]pyrimidin-1-yl)ethyl]-7-chloro-4-(cyanomethyl)-2-methyl-2,3,4,5-tetrahydro-1,4-benzoxazepine-6-carbonitrile]"
5,≤ 0.1,"Cc1nn(C(C)c2cc(Cl)c(C#N)c3c2OC(C)CN(CC(N)=O)C3)c2ncnc(N)c12 (single isomer, unassigned) [Example 109, 2-[9-[1-(4-amino-3-methyl-1H-pyrazolo[3,4-d]pyrimidin-1-yl)ethyl]-7-chloro-6-cyano-2-methyl-2,3-dihydro-1,4-benzoxazepin-4(5H)-yl]acetamide]"
6,≤ 0.1,"Cc1nn(C(C)c2cc(Cl)c(C#N)c3c2OC(C)CN(CC(N)=O)C3)c2ncnc(N)c12 (single isomer, unassigned) [Example 110, 2-[9-[1-(4-amino-3-methyl-1H-pyrazolo[3,4-d]pyrimidin-1-yl)ethyl]-7-chloro-6-cyano-2-methyl-2,3-dihydro-1,4-benzoxazepin-4(5H)-yl]acetamide]"
7,≤ 0.1,"COCCN1Cc2c(C#N)c(Cl)cc(C(C)n3nc(C)c4c(N)ncnc43)c2OC(C)C1 (single isomer, unassigned) [Example 111, 9-[1-(4-amino-3-methyl-1H-pyrazolo[3,4-d]pyrimidin-1-yl)ethyl]-7-chloro-4-(2-methoxyethyl)-2-methyl-2,3,4,5-tetrahydro-1,4-benzoxazepine-6-carbonitrile]"
8,≤ 0.1,"COCCN1Cc2c(C#N)c(Cl)cc(C(C)n3nc(C)c4c(N)ncnc43)c2OC(C)C1 (single isomer, unassigned) [Example 112, 9-[1-(4-amino-3-methyl-1H-pyrazolo[3,4-d]pyrimidin-1-yl)ethyl]-7-chloro-4-(2-methoxyethyl)-2-methyl-2,3,4,5-tetrahydro-1,4-benzoxazepine-6-carbonitrile]"
9,≤ 0.1,"CNC(=O)C1CC(N2Cc3c(C#N)c(Cl)cc(C(C)n4nc(C)c5c(N)ncnc54)c3OC(C)C2)C1 (single isomer, unassigned) [Example 113, 3-[9-[1-(4-amino-3-methyl-1H-pyrazolo[3,4-d]pyrimidin-1-yl)ethyl]-7-chloro-6-cyano-2-methyl-2,3-dihydro-1,4-benzoxazepin-4(5H)-yl]-N-methylcyclobutanecarboxamide]"
